Broadly, the Kd is the equilibrium constant for the complex coming apart. A low value points to a tighter complex. Broadly, the pKa is the pH at which an ionisable group is half protonated. The low end stands for a stronger acid or weaker base, the high end for a weaker acid or stronger base.

A value given as a limit tells only on which side of the number the result lay.

Results on 6 compounds are retold here after patent publication US10407432B2, “[1,2,4]triazolo[4,3-B]pyridazines for use in the treatment of proliferative diseases” (AstraZeneca AB, priority 2014, dated 2019).

The nature of data set [1]: Hygroscopicity of co-crystal versus free base. The format is physicochemical.
Data set [2] can be described thus: Stability under temperature and humidity conditions. The format is physicochemical. Particulars: exposed to range of temperature and humidity conditions.
Data set [3] deals with T1, BRDT (1) (Homo sapiens, UniProt Q58F21).
T1 construct: purchased Discoverx (BROMOscan service)
In words: BROMOscan assay (DiscoverX) BRDT(1). Format: binding. As to the method: (§1) BROMOscan™ Assay (ex Discoverx)
(§2) The ability of the compounds to bind to a bromodomain protein was tested by Discoverx using their proprietory ligand binding site-directed competition assay. Supplied compounds were anonymised.
(§3) The BROMOscan assay is based on the principle that test compounds that bind the bromodomain protein prevent its binding to an immobilized ligand thus reducing the amount of protein captured on a solid support. […] Screening “hits” are identified by measuring the amount of bromodomain captured in test versus control samples by using a quantitative, precise and ultra-sensitive qPCR method that detects the associated DNA label. In a similar manner, dissociation constants (Kds) for test compound-bromodomain interactions are calculated by measuring the amount of bromodomain protein captured on the solid support as a function of the test compound concentration.

Data set [4] addresses T2, BRD4 (1) (Homo sapiens, UniProt O60885). In words: Alpha-Screen assay, BRD4 BD1. Format: binding. More on the design: 6His-TEV-BRD4, amino acid residues 42-169, corresponding to the BD1 domain. The conditions noted are these: 6His-TEV-BRD4 residues 42-169 (BD1), H4K5,8,12,16(Ac)4-biotin peptide. As to the method: The ability of the compounds to bind to a bromodomain protein was tested in an AlphaScreen® assay. The assay is based on the interaction between Histidine-tagged bromodomain protein which can bind to Nickel-chelate donor beads, and a Biotinylated acetyl lysine peptide corresponding to a histone amino acid sequence, which can bind to streptavidin-conjugated acceptor beads. The protein-peptide interaction can be detected by light emission at 520-620 nm. In the presence of compounds which bind to BRD4 a lower signal is observed as the protein-peptide interaction is reduced. • 1. The assay was performed as follows: —Greiner BioOne (cat no. 784075) compound plates were used. Compounds were prepared using the Labcyte Echo Acoustic Dispenser with compounds in a final volume of 40 nl per well normalised to 0.5% (v/v) DMSO under final assay conditions. Compounds were tested in 12 point singlicate concentration response format. • 2. 4 μl of BRD4 protein (6His-TEV-BRD4, amino acid residues 42-169, corresponding to the BD1 domain) (final assay concentration=50 nM) per well was added using the Beckman Coulter BioRAPTR® Flying Reagent Dispensor Microfluidic Workstation. • 3. Incubated for 30 minutes at room temperature. • 4. Added 4 μl of acetyl lysine peptide (H4K5,8,12,16(Ac)4-biotin:(NH2-) YSGRG(K-Ac)GG(K-Ac)GLG(K-Ac)GGA(K-Ac)RHR(K-Biotin)(—COOH)) (final assay concentration=50 nM) per well using the Beckman Coulter BioRAPTR® Flying Reagent Dispensor Microfluidic Workstation. • 5. Incubated for 30 minutes at room temperature. • 6. Added 4 μl of Nickel & Streptavidin-bead solution pre-mixed (beads supplied by Perkin Elmer) per well using the BioRaptr as before (final assay concentration=4 μg/ml). Kept plates in the dark after addition. • 7. Incubated for 60 minutes at room temperature keeping the assay plate in the dark • 8. Plates were then read using the Perkin Elmer Envision plate reader, laser excitation at 680 nm and emission detected at 520-620 nm. • 9. Data was analysed using Genedata software and IC50 values calculated.
A general note: Bead proximity is the source of the signal in Alpha formats.

Data set [5] deals with MM1.S cells. In words: Anti-proliferative assay (AlamarBlue) in MM1.S cells. The format is cell-based. Particulars: Homo sapiens, 72 h, 3 days of culture, read-out: MM1.S Antiproliferative GI50/μM. As to the method:
Anti-proliferative assay The anti-proliferative effect of the compounds was assessed by AlamarBlue assay in MM1.S cells which were originally derived from a multiple myeloma patient. This assay is based on Resazurin, a non-fluorescent indicator dye converted to bright red-fluorescent resorufin via the reduction reactions of metabolically active cells. The amount of fluorescence produced is proportional to the number of living cells. MM.1S cells are cultured in RPMI-1640 medium (Gibco®) plus 10% Fetal bovine serum (FBS) and 1 mM L-glutamine. 12-24 hours before compound dosing, 90 μL of cell suspension (18,750 cells) was seeded into 96-well microtiter plates (black, flat bottom). On the day of compound dosing, compounds were serially diluted 1:3 in 100% DMSO using columns 2-10 of a 96-well microtiter plate. Column 11 of compound serial plate contained only DMSO. All wells were then further diluted 1:30 in media. 10 μL of compound or DMSO alone in media was added to cell plates columns 2-11 in triplicate. In addition, 1 plate had 10 μL of media added and was developed using alamar blue. Plates developed on the day of compound addition were referred to as Day 0. Dosed plates were cultured 3 days under normal conditions (RPMI-1640 plus 10% FBS and 1 mM L-glutamine) After 3 days of culture, dosed plates are developed using either MTS or alamar blue. For each compound concentration, % net growth was calculated by
(Day 3 dosed well-Average Day 0)/(Average Day 3 DMSO control-Average Day 0). The GI50, the concentration that causes 50% of growth inhibition, of each compound was calculated using the % net growth as defined by National Cancer Institute (NCI).
On the technique in general: Resazurin is reduced to fluorescent resorufin, in cell work by metabolically active cells.

Data set [6] addresses T3, BRD4 (2) (Homo sapiens, UniProt O60885).
T3 construct: purchased Discoverx (BROMOscan service)
In words: BROMOscan assay (DiscoverX) BRD4(2). The format is binding. As to the method:
as §1, §2, §3

Data set [7] deals with T4, BRD3 (2) (Homo sapiens, UniProt Q15059).
T4 construct: purchased Discoverx (BROMOscan service)
In words: BROMOscan assay (DiscoverX) BRD3(2). Format: binding. The method, then: as §1, §2, §3

The target of data set [8] is T5, BRD2 (1) (Homo sapiens, UniProt P25440).
T5 construct: purchased Discoverx (BROMOscan service)
In words: BROMOscan assay (DiscoverX) BRD2(1). Format: binding. As to the method: as §1, §2, §3

For data set [9], the system named is cMyc protein. In words: Assay monitoring cMyc protein modulation in MM1.S cells (flow cytometry). The conditions noted are these: Homo sapiens, c-Myc protein level, 16 hours treatment, read-out: MM1.S “MoA” IC50/μM. Format: cell-based. As to the method:
Assay Monitoring cMyc Protein Modulation
Multiple myeloma MM1.S cells were cultured in RPMI-1640 medium containing 10% FBS and 1% L-glutamine under standardized conditions in a humidified incubator (37° C. and 5% CO2). The impact of cMyc protein modulation induced by bromodomain inhibitors was assessed by staining and quantifying c-Myc protein level after compound treatment using a flow cytometer Assay, carried out in 96-well plate format with 200K cells per well. Cells were treated with serially diluted compounds 16 hours before fixing with 2% paraformaldehyde (final concentration) for 10 minutes at 37° C. After being permeablized by ice cold 90% methanol at 4° C. for 30 min, cells were washed, blocked by buffer (0.5% FBS in phosphate-buffered saline (PBS) buffer) for 10 minutes at room temperature, and stained with cMyc antibody for 1 hour (Cell Signaling Technology®5605, 1:200 dilution). Cells were washed and stained by incubating with Alexa-488 conjugated anti-Rabbit IgG (Cell Signaling Technology®#4412, 1:1000 dilution) at RT for 30 minutes. After staining, cells were washed again and fixed with 2% paraformaldehyde in PBS and ready for analysis by BD FACSCalibur™ flow cytometer. Fluorescence geometric mean was calculated through FlowJo (TreeStar Inc), maximal inhibition signal was determined by control compound treatment at high dose across each plate, and minimal inhibition signal was determined by DMSO treatment. IC50 was calculated by fitting the dose-response data points which are normalized against max and min signals as percentage of inhibition using a standard 4-Parameter-Logistic nonlinear regression model.
For orientation: In flow cytometry, cells or beads pass a laser one at a time.

In data set [10] the target is T6, BRDT (2) (Homo sapiens, UniProt Q58F21).
T6 construct: purchased Discoverx (BROMOscan service)
In words: BROMOscan assay (DiscoverX) BRDT(2). The format is binding. As to the method:
as §1, §2, §3

The target of data set [11] is T7, BRD2 (2) (Homo sapiens, UniProt P25440).
T7 construct: purchased Discoverx (BROMOscan service)
In words: BROMOscan assay (DiscoverX) BRD2(2). Format: binding. As to the method:
as §1, §2, §3

The target of data set [12] is T2, BRD4 (1). In words: BROMOscan assay (DiscoverX) BRD4(1). Format: binding. Set-up: purchased Discoverx (BROMOscan service). As to the method:
as §1, §2, §3

In data set [13] the target is T8, BRD3 (1) (Homo sapiens, UniProt Q15059).
T8 construct: purchased Discoverx (BROMOscan service)
In words: BROMOscan assay (DiscoverX) BRD3(1). Format: binding. As to the method: as §1, §2, §3

Data set [14] relates to MV-4-11 cells. In words: MV-4-11 xenograft model. Particulars: CB17 SCID mice, 10 mg/kg PO qd for 21 days, FIG. 5. Format: in vivo, mouse. As to the method: Compound A was also investigated in a xenograft model as described below.
Female CB17 SCID mice aged 6 to 8 weeks were obtained from Charles River Laboratories (Wilmington, Mass.) and maintained under specific-pathogen-free conditions in an AAALAC (Association for Assessment and Accreditation of Laboratory Animal Care)—accredited facility. Irradiated food and autoclaved water were provided ad libitum.
MV-4-11 cells ([…]) were resuspended in 0.1 ml of medium without serum and Matrigel (Becton Dickinson) at a 1:1 ratio. Cells (10^7/mouse) were injected subcutaneouly into the right flank of mice. Tumors were allowed to grow until they reached an average volume of 200 mm^3 for efficacy and then the mice were randomized into groups of 8. Compound A was solubilized in 0.5% HPMC/0.1% Tween80 for dosing. For efficacy, either vehicle or Compound A was administered PO once a day (qd) for 21 days at 10 mg/kg (mpk). Body weight and tumour volume were measured twice a week for 21 days.

Data set [15] is described as follows: physchem.
Data set [16] can be described thus: pKa determination.

T8 sequence (Q15059 34-140 limits assumed): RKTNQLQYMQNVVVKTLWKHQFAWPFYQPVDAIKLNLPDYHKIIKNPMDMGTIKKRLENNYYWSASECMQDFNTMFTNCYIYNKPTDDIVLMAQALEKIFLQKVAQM
T5 sequence (P25440 74-180 limits assumed): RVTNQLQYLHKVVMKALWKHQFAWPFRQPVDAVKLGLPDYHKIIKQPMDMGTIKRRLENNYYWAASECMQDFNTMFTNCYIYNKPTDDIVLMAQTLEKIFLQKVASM
T4 sequence (Q15059 306-415 limits assumed): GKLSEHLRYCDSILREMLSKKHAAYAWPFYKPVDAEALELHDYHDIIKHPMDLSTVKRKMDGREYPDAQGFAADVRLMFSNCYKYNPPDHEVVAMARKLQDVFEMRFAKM
T7 sequence (P25440 344-453 limits assumed): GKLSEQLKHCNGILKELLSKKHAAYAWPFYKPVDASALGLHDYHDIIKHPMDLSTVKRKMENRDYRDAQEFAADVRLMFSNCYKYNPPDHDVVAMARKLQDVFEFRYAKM

In the case of `COc1nnc2ccc(N3CCC(c4ccc(OCCN5CCN(C)C(=O)[C@H]5C)cc4)CC3)nn12.O=C(O)c1ccc2cc(O)ccc2c1` [(R)-4-(2-(4-(1-(3-methoxy-[1,2,4]triazolo[4,3-b]pyridazin-6-yl)piperidin-4-yl)phenoxy)ethyl)-1,3-dimethylpiperazin-2-one:6-hydroxy-2-naphthoic acid (1:1) co-crystal], the “Hygroscopicity compared to Compound A free base” value in data set [1] is “significantly less hydroscopic than Compound A free base”. In [2], the “Stability compared to Compound A free base” value was “more stable than Compound A free base”.
Regarding `COc1nnc2ccc(N3CCC(c4ccc(OCCN5[C@H](C)CN(C(C)=O)C[C@@H]5C)cc4)CC3)nn12` [Example 2, 1-((3S,5R)-4-(2-(4-(1-(3-methoxy-[1,2,4]triazolo[4,3-b]pyridazin-6-yl)piperidin-4-yl)phenoxy)ethyl)-3,5-dimethylpiperazin-1-yl)ethanone], the Kd came out at 0.035 µM in data set [3]; 0.29 µM in data set [6]; 0.92 µM in data set [7]; 0.083 µM in data set [8]; 1.1 µM in [10]; 0.35 µM in data set [11]. Also, the results for the Kd in data set [12] and in data set [13] were 0.026 µM and 0.057 µM, respectively. The IC50 in data set [4] was 0.035 µM; in data set [9] it was under 0.002 µM. Besides, the GI50 in data set [5] is under 0.002 µM.
As to `COc1nnc2ccc(N3CCC(c4ccc(OCCCN5[C@H](C)CN(C(C)=O)C[C@@H]5C)cc4)CC3)nn12` [Example 4, 1-((3R,5S)-4-(3-(4-(1-(3-methoxy-[1,2,4]triazolo[4,3-b]pyridazin-6-yl)piperidin-4-yl)phenoxy)propyl)-3,5-dimethylpiperazin-1-yl)ethanone], the values for the IC50 in data set [4] and in data set [9] were 0.14 µM and 0.012 µM, respectively. In [5], the GI50 is 0.0051 µM. Besides, the results for the Kd in data set [6] and in data set [12] were 0.25 µM and 0.057 µM, respectively.
`COc1nnc2ccc(N3CCC(c4ccc(OCCN5CCN(C)C(=O)[C@H]5C)cc4)CC3)nn12` [Example 1, (R)-4-(2-(4-(1-(3-methoxy-[1,2,4]triazolo[4,3-b]pyridazin-6-yl)piperidin-4-yl)phenoxy)ethyl)-1,3-dimethylpiperazin-2-one]: the “Tumour growth inhibition (tumour volume)” value in data set [14] is recorded as “Tumour Growth Inhibition”. Besides, the Kd in data set [3] was determined as 0.095 µM; in data set [6], 0.13 µM; in [7], 0.43 µM; in data set [8] it was 0.1 µM; in data set [10] it was 0.45 µM; in [11] it was 0.28 µM. In addition, the Kd in [12] turned out to be 0.047 µM; in data set [13], 0.064 µM. Also, the IC50 in data set [4] turned out to be 0.12 µM; in data set [9], 0.011 µM. In addition, the GI50 in [5] turned out to be 0.0049 µM. This compound showed a pKa in [15] of under 1.
Consider `COc1nnc2ccc(N3CCC(c4ccc(OCCCN5CCN(C)C(=O)[C@H]5C)cc4)CC3)nn12` [Example 3, (R)-4-(3-(4-(1-(3-methoxy-[1,2,4]triazolo[4,3-b]pyridazin-6-yl)piperidin-4-yl)phenoxy)propyl)-1,3-dimethylpiperazin-2-one], for which the Kd in data set [3] was 0.093 µM; in [6], 0.34 µM; in [7] it was 0.67 µM; in [8], 0.16 µM; in data set [10], 0.99 µM; in data set [11], 0.53 µM. Further, the Kd in data set [12] and in data set [13] was 0.11 µM in each case. Further, the values for the IC50 in data set [4] and in [9] were 0.3 µM and 0.025 µM, respectively. Moreover, the GI50 in data set [5] stood at 0.0075 µM.
Take `O=C(O)c1ccc2cc(O)ccc2c1` [6-hydroxy-2-naphthoic acid]: the pKa in data set [16] came to 4.3.
